From the NIST ThermoML archive (doi:10.1016/j.fluid.2006.09.014)
Numbers after ± are expanded uncertainties.

Details: 298.15 K; 101.33 kPa; Liquid
With `CC(=O)c1ccccc1` [acetophenone] the mass density was 1023 ± 0.7 kg/m3.
Compound `COc1ccccc1` [anisole] has a mass density of 989.13 ± 0.21 kg/m3.
For `Clc1ccccc1` [chlorobenzene], the mass density was 1100.9 ± 0.5 kg/m3.
Work on `Cc1ccccc1` [toluene] yielded a mass density of 862.27 ± 0.23 kg/m3.
